Data taken from US8530490B2, “Uracil compound or salt thereof having human deoxyuridine triphosphatase inhibitory activity” (Taiho Pharmaceutical Co., Ltd., priority 2008, dated 2013).

What follows are compounds tested against human dUTPase (Homo sapiens (Human), UniProt P33316) (assay: Human dUTPase inhibitory effect: production of [5-3H]dUMP from [5-3H]dUTP, measured by HPLC with flow scintillation). Details: [5-3H]dUMP production from [5-3H]dUTP, 37° C., 15 minutes.
Format: biochemical
Protocol: The inhibitory activity of the compound of the present invention against human dUTPase was determined by measuring the production of [5-^3H]deoxyuridine monophosphate (hereinafter, referred to as [5-^3H]dUMP) from [5-^3H]deoxyuridine triphosphate (hereinafter, referred to as [5-^3H]dUTP) according to a method shown below.
Specifically, 0.2 mL in total of a solution containing 0.02 mL of 1 μM dUTP (including 588 Bq/mL [5-3H]dUTP), 0.05 mL of a 0.2 M Tris buffer solution (pH 7.4), 0.05 mL of 16 mM magnesium chloride, 0.02 mL of 20 mM 2-mercaptoethanol, 0.02 mL of a 1% aqueous solution of fetal bovine serum-derived albumin, 0.02 mL of varying concentrations of test compound solutions or pure water as a control, and 0.02 mL of a solution of human dUTPase (expressed using E. coli and purified) was reacted at 37° C. for 15 minutes. Immediately after the reaction, the solution was heated at 100° C. for 1 minute to terminate the reaction, followed by centrifugation at 15000 rpm for 2 minutes. An aliquot (150 μL) of the supernatant thus obtained by centrifugation was analyzed using an Atlantis dC18 column (manufactured by Waters Corp., 4.6×250 mm) and a high-performance liquid chromatograph (manufactured by Shimadzu Corp., Prominence). Elution was performed at a flow rate of 0.8 mL/min for 30 minutes by a concentration gradient from a 4:6 mixed solution of a mobile phase A (10 mM potassium dihydrogen phosphate (pH 6.7), 10 mM tetrabutylammonium, and 0.25% methanol) and a mobile phase B (50 mM potassium dihydrogen phosphate (pH 6.7), 5.6 mM tetrabutylammonium, and 30% methanol) to the mobile phase B. The eluate was mixed with a scintillator (manufactured by PerkinElmer Co., Ltd., Ultima-Flo AP) at a 1:2 ratio, and the radioactivity of the produced [5-^3H]dUMP (RT 10.2 min) was measured using Radiomatic Flow Scintillation Analyzer (manufactured by PerkinElmer Co., Ltd., 525TR).
The inhibitory activity of the test compound was determined according to the formula shown below.

Chain of human dUTPase (P33316 94-252): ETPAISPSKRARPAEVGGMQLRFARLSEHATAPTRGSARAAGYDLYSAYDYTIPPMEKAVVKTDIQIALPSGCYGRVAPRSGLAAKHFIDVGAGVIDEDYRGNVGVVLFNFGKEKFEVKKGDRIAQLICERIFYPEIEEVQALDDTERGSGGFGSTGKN

Structure (SMILES)	IC50 [nM]
CC[C@@H](NS(=O)(=O)CCCOCn1ccc(=O)[nH]c1=O)c1ccc(F)c(OCC2CC2)c1 [Example 22, (R)—N-(1-(3-(cyclopropylmethoxy)-4-fluorophenyl)propyl)-3-((2,4-dioxo-3,4-dihydropyrimidin-1(2H)-yl)methoxy)propane-1-sulfonamide]	30
C[C@@H](NS(=O)(=O)CCCOCn1ccc(=O)[nH]c1=O)c1cccc(OC2CCOCC2)c1 [Example 47, (R)-3-((2,4-dioxo-3,4-dihydropyrimidin-1(2H)-yl)methoxy)-N-(1-(3-(tetrahydro-2H-pyran-4-yloxy)phenyl)ethyl)propane-1-sulfonamide]	210
Cc1ccccc1C(NS(=O)(=O)CCCOCn1ccc(=O)[nH]c1=O)c1ccccc1 (centres unmarked) [Example 77, 3-((2,4-dioxo-3,4-dihydropyrimidin-1(2H)-yl)methoxy)-N-(phenyl(o-tolyl)methyl)propane-1-sulfonamide]	5690
C[C@@H](NS(=O)(=O)CCCOCn1ccc(=O)[nH]c1=O)c1cccc(OCC(F)F)c1 [Example 61, (R)—N-(1-(3-(2,2-difluoroethoxy)phenyl)ethyl)-3-((2,4-dioxo-3,4-dihydropyrimidin-1(2H)-yl)methoxy)propane-1-sulfonamide]	140
O=c1ccn(COCCOC(c2ccccc2)(c2ccccc2)c2ccccc2)c(=O)[nH]1 [Comparative Example 1, reference compound]	185000
O=c1ccn(CCCS(=O)(=O)N2CCC[C@@H]2C(O)(c2ccccc2)c2ccccc2)c(=O)[nH]1 [Example 130, (R)-1-(3-(2-(hydroxydiphenylmethyl)pyrrolidin-1-ylsulfonyl)propyl)pyrimidine-2,4(1H, 3H)-dione]	480
CN(CC1(c2ccccc2)CC1)S(=O)(=O)CCCn1ccc(=O)[nH]c1=O [Example 133, 3-(2,4-dioxo-3,4-dihydropyrimidin-1(2H)-yl)-N-methyl-N-((1-phenylcyclopropyl)methyl)propane-1-sulfonamide]	6560
CC(C)(CCCOCn1ccc(=O)[nH]c1=O)NS(=O)(=O)c1cccc(Cl)c1 [Example 148, 3-chloro-N-(5-((2,4-dioxo-3,4-dihydropyrimidin-1(2H)-yl)methoxy)-2-methylpentan-2-yl)benzenesulfonamide]	2770
CC[C@@H](NS(=O)(=O)CCCOCn1ccc(=O)[nH]c1=O)c1cccc(OCC2CC2)c1 [Example 27, (R)—N-(1-(3-(cyclopropylmethoxy)phenyl)propyl)-3-((2,4-dioxo-3,4-dihydropyrimidin-1(2H)-yl)methoxy)propane-1-sulfonamide]	40
C[C@@H](NS(=O)(=O)CCCOCn1ccc(=O)[nH]c1=O)c1cccc(OCC2CCCC2)c1 [Example 65, (R)—N-(1-(3-(cyclopentylmethoxy)phenyl)ethyl)-3-((2,4-dioxo-3,4-dihydropyrimidin-1(2H)-yl)methoxy)propane-1-sulfonamide]	1000
CC(C)(CCCOCn1ccc(=O)[nH]c1=O)NS(=O)(=O)c1cccc(Br)c1 [Example 141, 3-bromo-N-(5-((2,4-dioxo-3,4-dihydropyrimidin-1(2H)-yl)methoxy)-2-methylpentan-2-yl)benzenesulfonamide]	4350
O=c1ccn(COCCCS(=O)(=O)NC(c2ccccc2)c2cccc(OCC3CC3)c2)c(=O)[nH]1 (centres unmarked) [Example 10, N-((3-(cyclopropylmethoxy)phenyl)(phenyl)methyl)-3-((2,4-dioxo-3,4-dihydropyrimidin-1(2H)-yl)methoxy)propane-1-sulfonamide]	160
O=c1ccn(COCCCS(=O)(=O)NC(c2ccccc2)c2cccc(OCC3CCC3)c2)c(=O)[nH]1 (centres unmarked) [Example 29, N-((3-(cyclobutylmethoxy)phenyl)(phenyl)methyl)-3-((2,4-dioxo-3,4-dihydropyrimidin-1(2H)-yl)methoxy)propane-1-sulfonamide]	890
O=c1ccn(COCCCS(=O)(=O)NC(c2ccccc2)c2cccc(F)c2)c(=O)[nH]1 (centres unmarked) [Example 93, 3-((2,4-dioxo-3,4-dihydropyrimidin-1(2H)-yl)methoxy)-N-((3-fluorophenyl)(phenyl)methyl)propane-1-sulfonamide]	4630
CC[C@H](C)COc1cccc(C(NS(=O)(=O)CCCOCn2ccc(=O)[nH]c2=O)c2ccccc2)c1 (stereo partly drawn) [Example 18, 3-((2,4-dioxo-3,4-dihydropyrimidin-1(2H)-yl)methoxy)-N-((3-((S)-2-methylbutoxy)phenyl) (phenyl)methyl)propane-1-sulfonamide]	1650
CCC(NS(=O)(=O)CCCOCn1ccc(=O)[nH]c1=O)c1ccc(F)c(OCC2CC2)c1 (centres unmarked) [Example 34, N-(1-(3-(cyclopropylmethoxy)-4-fluorophenyl)propyl)-3-((2,4-dioxo-3,4-dihydropyrimidin-1(2H)-yl)methoxy)propane-1-sulfonamide]	30
CC(C)C(NS(=O)(=O)CCCOCn1ccc(=O)[nH]c1=O)c1ccc(F)c(OCC2CC2)c1 (centres unmarked) [Example 25, N-(1-(3-(cyclopropylmethoxy)-4-fluorophenyl)-2-methylpropyl)-3-((2,4-dioxo-3,4-dihydropyrimidin-1(2H)-yl)methoxy)propane-1-sulfonamide]	100
C[C@@H](NS(=O)(=O)CCCOCn1ccc(=O)[nH]c1=O)c1cccc(OCC(F)(F)C(F)(F)F)c1 [Example 72, (R)-3-((2,4-dioxo-3,4-dihydropyrimidin-1(2H)-yl)methoxy)-N-(1-(3-(2,2,3,3,3-pentafluoropropoxy)phenyl)ethyl)propane-1-sulfonamide]	660
CC(C)(CCCOCn1ccc(=O)[nH]c1=O)NS(=O)(=O)c1ccc(Cl)cc1 [Example 136, 4-chloro-N-(5-((2,4-dioxo-3,4-dihydropyrimidin-1(2H)-yl)methoxy)-2-methylpentan-2-yl)benzenesulfonamide]	3940
CC(NS(=O)(=O)CCCOCn1ccc(=O)[nH]c1=O)c1ccc(F)c(OCC2CC2)c1 (centres unmarked) [Example 36, N-(1-(3-(cyclopropylmethoxy)-4-fluorophenyl)ethyl)-3-((2,4-dioxo-3,4-dihydropyrimidin-1(2H)-yl)methoxy)propane-1-sulfonamide]	150
C[C@@H](NS(=O)(=O)CCCOCn1ccc(=O)[nH]c1=O)c1ccc(F)c(OCC(F)F)c1 [Example 68, (R)—N-(1-(3-(2,2-difluoroethoxy)-4-fluorophenyl)ethyl)-3-((2,4-dioxo-3,4-dihydropyrimidin-1(2H)-yl)methoxy)propane-1-sulfonamide]	110
COc1cccc(S(=O)(=O)NC2(CCCOCn3ccc(=O)[nH]c3=O)CC2)c1 [Example 165, N-(1-(3-((2,4-dioxo-3,4-dihydropyrimidin-1(2H)-yl)methoxy)propyl)cyclopropyl)-3-methoxybenzenesulfonamide]	1860
O=c1ccn(CCCS(=O)(=O)N[C@H](c2ccc(F)cc2)c2ccc(F)c(OCC3CC3)c2)c(=O)[nH]1 [Example 116, (R)—N-((3-(cyclopropylmethoxy)-4-fluorophenyl)(4-fluorophenyl)methyl)-3-(2,4-dioxo-3,4-dihydropyrimidin-1(2H)-yl)propane-1-sulfonamide]	350
O=c1ccn(CC2CCN(S(=O)(=O)NCc3cccc(OCC4CC4)c3)CC2)c(=O)[nH]1 [Example 128, N-(3-(cyclopropylmethoxy)benzyl)-4-((2,4-dioxo-3,4-dihydropyrimidin-1(2H)-yl)methyl)piperidine-1-sulfonamide]	270
CN(CCc1cccc(OCC2CC2)c1)S(=O)(=O)CCCn1ccc(=O)[nH]c1=O [Example 134, N-(3-(cyclopropylmethoxy)phenethyl)-3-(2,4-dioxo-3,4-dihydropyrimidin-1(2H)-yl)-N-methylpropane-1-sulfonamide]	4540
O=c1ccn(CCCS(=O)(=O)N2CCC[C@@H]2C(O)(c2cccc(F)c2)c2cccc(F)c2)c(=O)[nH]1 [Example 132, (R)-1-(3-(2-(bis(3-fluorophenyl)(hydroxy)methyl)pyrrolidin-1-ylsulfonyl)propyl)pyrimidine-2,4(1H, 3H)-dione]	380
C[C@@H](NS(=O)(=O)CCCn1ccc(=O)[nH]c1=O)c1cccc(OC2CCCC2)c1 [Example 104, (R)—N-(1-(3-(cyclopentyloxy)phenyl)ethyl)-3-(2,4-dioxo-3,4-dihydropyrimidin-1(2H)-yl)propane-1-sulfonamide]	1460
O=c1ccn(COCCCCNS(=O)(=O)c2cccc(OCC3CC3)c2)c(=O)[nH]1 [Example 166, 3-(cyclopropylmethoxy)-N-(4-((2,4-dioxo-3,4-dihydropyrimidin-1(2H)-yl)methoxy)butyl)benzenesulfonamide]	640
C[C@@H](NS(=O)(=O)CCCn1ccc(=O)[nH]c1=O)c1cccc(OCC2CC2)c1 [Example 108, (R)—N-(1-(3-(cyclopropylmethoxy)phenyl)ethyl)-3-(2,4-dioxo-3,4-dihydropyrimidin-1(2H)-yl)propane-1-sulfonamide]	1710
